Source: US6335039B1, “Pharmaceutical formulations comprising vegetal material selected from trichilia” (Laboratorio Catarinense S/A, priority 1997, dated 2002)

How the values were obtained:
nociception by formalin = assay: Formalin-induced licking; assay type: in vivo, mice; settings: naloxone 10 minutes before; acute and inflammatory phases, formalin 2.5% w/v
Experimental: Male Swiss mice varying from 25 to 35 g, were housed at 22° C.±2° C. under a 12 h light/12 h dark circle and with access to water and purina. The animals were acclimatized to the laboratory for at least 1 hour before testing and were used once throughout the experiments.
Mice were lightly anaesthetized, with exception of those used to analyze the first phase of fromalin-induced pain. The surface of the animals paws was injected with 20 μL of 2.5% w/v formalin. Two groups of mice (mice treated with T. catigua and control mice) were simultaneously observed over a period from 0 to 30 min after the formalin injection. The total time spent by the animal licking the injected paw was timed with a chronometer and was considered as an indicative of pain. The first phase of the nociceptive response normally occurred […] the formalin injection and the second phase was from 15 to 30 min after such induction. These phases represent the neurogenic and inflammatory responses, respectively. In order to avoid pharmacokinetic influences, different groups of animals were used to analyze each phase of the experiment. Alternatively, animals were pretreated with naloxone 10 min prior to the administration of compositions comprising an extract of T. catigua.

HCC = assay: Superfusion of isolated corpus cavernosum (human, HCC); assay type: cell-based
[1] = test system: corpus cavernosum of the rabbit (RbCC); assay type: cell-based; settings: for relaxation of RbCC in presence of ATP-dependent potassium channel blocker: blocker 10 μM (Glybenclamide, FIG. 4)

CN1CC[C@]23c4c5ccc(O)c4O[C@H]2[C@@H](O)C=C[C@H]3[C@H]1C5 [morphine]
analgesic action after pretreatment with naloxone (nociception by formalin): reverted

O=[N+]([O-])OCC(CO[N+](=O)[O-])O[N+](=O)[O-] [GTN, glyceryltrinitrate]
relaxation of HCC during L-NAME infusion (HCC; Ach 0.6 μM, GTN 1.3 μM, Cat 10-100 μL, 4 tissue strips from 2 donators): not significantly affected
relaxation of RbCC in presence of tetrodotoxin [1]: did not present any effect
relaxation of RbCC during L-NAME infusion ([1]; L-NAME 10 μM, FIG. 2, 6 experiments): not affected
relaxation of RbCC in presence of atropine ([1]; atropine 1 μM, FIG. 3, 4 experiments): did not present any effect
relaxation of RbCC in presence of ATP-dependent potassium channel blocker [1]: without affecting

N=C(N)NCCC[C@H](N)C(=O)O [L-arg, L-arginine]
RbCC tonus on subsequent infusion after L-NAME ([1]; L-arg 300 μM after L-NAME, FIG. 2): reverted the enhanced tonus

CC1(C)Oc2ccc(C#N)cc2C(N2CCCC2=O)C1O (stereo not shown) [CMK, cromakalim]
relaxation of RbCC in presence of ATP-dependent potassium channel blocker [1]: inhibited

COC(=O)[C@@H](N)CCCNC(=N)N[N+](=O)[O-] [L-NAME, N^m-nitro-L-arginine methyl ester]
HCC tonus (HCC; infusion of L-NAME): enhanced the HCC tonus
basal tonus of RbCC ([1]; infusion of L-NAME 10 μM, FIG. 2): enhanced the basal tonus
